This note sets out measurements from US7553837B2, “Phenylazole compounds production process and antioxidants” (Nippon Soda Co., Ltd., priority 2003, dated 2009).

Molecules are shown by their SMILES.

Data set [1] concerns the target T1, 15-LO obtained from reticulocyte of rabbit (Oryctolagus cuniculus, UniProt P12530).
T1 construct: 15-LO obtained from reticulocyte of rabbit; from tissue; host or cells: rabbit reticulocytes
T1 sequence (P12530 1-663): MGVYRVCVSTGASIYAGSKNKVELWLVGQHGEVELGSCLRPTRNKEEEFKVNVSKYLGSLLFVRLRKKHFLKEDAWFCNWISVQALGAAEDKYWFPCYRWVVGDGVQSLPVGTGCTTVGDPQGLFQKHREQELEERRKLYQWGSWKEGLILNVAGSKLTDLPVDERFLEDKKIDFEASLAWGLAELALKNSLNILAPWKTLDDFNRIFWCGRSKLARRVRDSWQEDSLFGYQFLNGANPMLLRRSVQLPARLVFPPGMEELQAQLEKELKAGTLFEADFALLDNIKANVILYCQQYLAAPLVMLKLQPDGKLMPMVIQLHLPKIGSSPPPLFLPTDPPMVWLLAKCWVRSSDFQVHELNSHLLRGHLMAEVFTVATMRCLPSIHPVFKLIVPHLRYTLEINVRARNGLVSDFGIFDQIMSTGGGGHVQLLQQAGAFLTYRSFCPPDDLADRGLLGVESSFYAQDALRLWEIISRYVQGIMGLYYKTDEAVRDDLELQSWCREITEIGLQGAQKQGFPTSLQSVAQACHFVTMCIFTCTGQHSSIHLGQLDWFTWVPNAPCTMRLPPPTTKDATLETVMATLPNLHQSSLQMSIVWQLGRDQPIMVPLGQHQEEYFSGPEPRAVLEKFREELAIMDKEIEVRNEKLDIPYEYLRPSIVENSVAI
In words: 15-lipoxygenase (15-LO) inhibitory activity, 15-HETE production. The class given is biochemical. The note with it: 15-LO from reticulocyte of rabbit, linoleic acid. The protocol:
A 15-LO inhibitory activity was measured by a partially modified process of a process of Auerbach et al. (Auerbach B. J, et al., Anal. Biochem.: 201, 375-80, 1992). That is, 15-LO obtained from reticulocyte of rabbit and each of test compounds dissolved in DMSO (final concentration: 1%) were preincubated (4° C., 15 minutes) in phosphoric acid buffer (pH 7.4) and 256 μM linoleic acid was further added, followed by incubation (4° C., 10 minutes). The amount of 15-HETE produced as a result of incubation was determined by spectrophotometry (OD660nm) and 50% production inhibitory concentration (μM) against 15-LO of each test compound was calculated. Compounds (R-3) and (R-4) (edaravone) of the following formulas were used as a control drug.

A further data set concerns the target T2, 5-lipoxygenase (5-LO) (Homo sapiens, UniProt P09917).
T2 construct: human peripheral blood mononuclear cells and each of test compounds dissolved in DMSO (final concentration: 1%) were preincubated; endogenous in cells; host or cells: human peripheral blood mononuclear cells
T2 sequence (P09917 1-674): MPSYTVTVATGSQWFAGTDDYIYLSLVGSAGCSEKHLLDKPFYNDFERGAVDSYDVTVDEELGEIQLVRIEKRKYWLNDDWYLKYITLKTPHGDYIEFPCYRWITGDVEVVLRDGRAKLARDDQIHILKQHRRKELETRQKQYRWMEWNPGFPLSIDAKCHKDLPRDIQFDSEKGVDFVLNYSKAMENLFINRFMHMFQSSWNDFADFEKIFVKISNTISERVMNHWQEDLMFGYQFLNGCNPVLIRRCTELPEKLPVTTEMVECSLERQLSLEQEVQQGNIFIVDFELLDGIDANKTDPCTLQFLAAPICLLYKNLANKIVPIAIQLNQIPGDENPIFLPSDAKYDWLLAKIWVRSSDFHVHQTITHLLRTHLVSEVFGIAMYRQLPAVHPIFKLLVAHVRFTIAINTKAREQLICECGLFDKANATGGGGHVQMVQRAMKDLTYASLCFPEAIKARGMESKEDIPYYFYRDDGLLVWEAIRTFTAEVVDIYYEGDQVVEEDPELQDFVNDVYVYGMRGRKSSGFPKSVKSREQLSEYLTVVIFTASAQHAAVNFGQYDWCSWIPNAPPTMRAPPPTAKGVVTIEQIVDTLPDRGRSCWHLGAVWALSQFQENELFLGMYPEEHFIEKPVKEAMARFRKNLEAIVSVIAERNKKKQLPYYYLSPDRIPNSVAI
In words: 5-lipoxygenase (5-LO) inhibitory activity, leukotriene B4 production in human peripheral blood mononuclear cells. In kind it is cell-based. The note with it: human peripheral blood mononuclear cells, A23187, leukotriene B4 production. As for the experimental part: A 5-LO inhibitory activity was measured by a partially modified process of a process of Carter et al. (Carter G. W, et al, J. Pharmacol. Exp. Ther.: 256, 929-37, 1991). That is, human peripheral blood mononuclear cells and each of test compounds dissolved in DMSO (final concentration: 1%) were preincubated (37° C., 15 minutes) in a Hanks' balanced salt solution and 30 μM A23187 was further added, followed by incubation (37° C., 30 minutes). The amount of leukotriene B4 produced as a result of incubation was determined by enzyme immunoassay and a 50% production inhibitory concentration (μM) against 5-LO of each test compound was calculated.

For data set [2], the system named is lipid peroxidation activity of each tissue homogenate (brain, heart and kidney). In words: Tissue migration properties: ex vivo lipid peroxidation inhibition in brain, heart and kidney homogenates. The note with it: SD male rats, 100 mg/kg intraperitoneally, 30 minutes after administration. As for the experimental part: An in vitro lipid peroxidation inhibition of the compounds of the present invention was evaluated by measuring a lipid peroxidation activity in a rat brain homogenate according to a process of Malvy, c., et al., Biochemical and Biophysical Research Communications, 1980, Vol. 95, p. 734-737. That is, a rat brain was extracted and a 5-fold amount of an aqueous phosphoric acid buffered saline solution (pH 7.4) (hereinafter abbreviated to PBS) was added to the brain under ice cooling, followed by homogenization using a Teflon homogenizer and further centrifugation at 10,000 g for 20 minutes to prepare a brain homogenate as a supernatant. To the brain homogenate thus prepared, 500 μM cysteine, 5 μM sulfuric acid monobasic iron and 100 mM KCl were added, followed by incubation at 37° C. for 30 minutes. Malondialdehyde produced by the […] of lipid peroxidation was measured by a thiobarbituric acid process.
Tissue migration properties of the compounds of the present invention were evaluated by measuring an ex vivo lipid peroxidation inhibition. A solution or suspension prepared by dissolving or suspending each of test compounds in an aqueous physiological saline solution or a 1% poly oxy ethylene hydrogenated castor oil (NIKKOL HCO-60, manufactured by Nikko Chemicals Co., Ltd.) physiological saline solution was intraperitoneally administered to SD male rats (one group: 3 rats, 6 weeks old) (available from Nippon SLC Co., Ltd.) at a dose of 100 mg/kg. 30 Minutes after administration, rats were bled to death by cutting the carotid artery and then the brain, heart and kidney were extracted. A lipid peroxidation activity of each tissue homogenate was measured by the process described in Example 18. An inhibition ratio in each tissue of the compounds of the present invention was determined from the amount of lipid peroxidation produced of a control group (physiological saline administration group) and a test compound administration group.

For data set [3], the system named is lipid peroxidation in retina homogenate. As to the kind of experiment: Retina migration properties: ex vivo retinal lipid peroxidation production inhibition. In kind it is in vivo. The note with it: SD male rats, retina taken after 30 minutes. The protocol:
Retina migration properties of the compounds of the present invention were evaluated. To SD male rats (one group: 3 rats, 6 weeks old), a solution or suspension prepared by dissolving or suspending each of the test compounds in a 0.1N hydrochloric acid solution or a 1% poly oxy ethylene hydrogenated castor oil (NIKKOL HCO-60) solution was orally administered. After 30 minutes, both eyes were extracted and the retina was separated under ice cooling. A 5% homogenate solution of the retina was prepared in a 0.1M tris-hydrochloric acid buffer (pH 7.4) under ice cooling using a polytron homogenizer for a trace amount (NS-310E: manufactured by Nichion Irika Kiki Co., Ltd.) and, after autoxidation at 37° C. for one hour, the amount of lipid peroxidation produced was determined by a thiobarbituric acid process (MASUGI et al., vitamin 51, 21-29, 1977). A 30% inhibitory dose (ID30) was determined from the inhibition ratio at each dose. As is apparent from the results, the compounds of the present invention have an ex vivo retinal lipid peroxidation production inhibitory action and is also excellent in retina migration properties.

Data set [4] relates to abnormal behavior and fatality due to ferrous chloride. As to the kind of experiment: In vivo antioxidative activity: ferrous chloride administration into spinal subarachnoid cavity of mice. Set-up: species or system Slc:ICR male mice. To be noted: score after 60 minutes. The protocol:
An in vivo antioxidative activity of the compounds of the present invention was evaluated from an abnormal behavior due to administration of ferrous chloride into spinal subarachnoid cavity of mice as well as an inhibitory effect of a fatality rate according to the process described in J. Med. Chem., 1997, Vol. 40, p. 559-573. Using Slc:ICR male mice (one group: 3 to 7 mice, 5 weeks old) (available from Nippon SLC Co., Ltd.), 5 μl of a 50 mM ferrous chloride physiological saline solution was administered to the spinal canal through the space between the fifth lumbar vertebrae and the sixth lumbar vertebrae. 20 to 60 minutes after administration of ferrous chloride, symptoms were observed and a score after 60 minutes was determined from symptoms shown in Table 32. […] As is apparent from the results, the compounds of the present invention have an in vivo antioxidation action.

One may read the IC50 as the concentration needed to halve the response being measured. A high value points to weaker potency. What is called melting point is the temperature of the solid-liquid transition. Take `Cc1c(C)c2c(c(C)c1N)CC(C)(CN1CCN(c3ccc(-c4ccn[nH]4)cc3)CC1)O2` (stereo not drawn) [Compound B-1-34]: the melting point fell in the range of 205 to 207 °C. Also, 5.56 µM corresponded to half-maximal inhibition in data set [1] (IC50). Besides, at 5-lipoxygenase (5-LO), half-maximal inhibition (IC50) was put at 0.162 µM.
For `Cc1c(C)c2c(c(C)c1N)CC(C)(CN1CCN(c3ccc(-n4ccnc4)cc3)CC1)O2` (racemic) [Compound B-1-2, 4-(±)-(5-amino-2,4,6,7-tetramethyldihydrobenzofuran-2-ylmethyl)-1-(4-imidazol-1-ylphenyl)piperazine], the “Ex vivo lipid peroxidation inhibition inhibition ratio (%) Brain” value in data set [2] (brain homogenate) amounted to 79%. Also, the “Ex vivo lipid peroxidation inhibition inhibition ratio (%) Heart” value in data set [2] (heart homogenate) was 93%. In addition, the “Ex vivo lipid peroxidation inhibition inhibition ratio (%) Kidney” value in data set [2] (kidney homogenate) was determined as 89%. Further, the “Lipid peroxidation inhibition 30% inhibitory concentration (ID30, oral administration) in ex vivo retina” value in data set [3] is 5.7 mg/kg. Also, the “In vivo antioxidation action 50% inhibitory concentration (ID50), Intraperitoneal administration” value in data set [4] (intraperitoneal administration 30 minutes before ferrous chloride into spinal canal) turned out to be 27 mg/kg. Further, in data set [4] (oral administration 30 minutes before ferrous chloride into spinal canal), the “In vivo antioxidation action 50% inhibitory concentration (ID50), Oral administration” value is 13 mg/kg.
